Laboratory results from patent publication US8569358B2, “Use of silymarin and/or constituents thereof as skin or hair pigmentation promoters” (GreenPharma, priority 2005, dated 2013).
Where “and” joins values, the source holds several entries; their conditions need not be identical. Equal values may be shown once.

Tests used:
[1] = target: T1, receptor MC1-R (melanocortin-1 receptor) (Mus musculus, UniProt Q01727); experiment: Displacement of [125I]NDP-alpha-MSH from receptor MC1-R; type: binding
Description: The binding of silybin to the receptor MC1-R (melanocortin-1 receptor) was studied.
Silybin was tested in a test of displacement of an extremely powerful MC1-R ligand: displacement of [^125I]NDP-alpha-MSH, (according to Siegrist et al, 1988, J. Recept. Res., 8: 323-343).

[2] = tested on: B16F10-line mouse melanoma cells; experiment: Melanin synthesis by B16F10-line melanocytes (7-day culture); type: cell-based; settings: 7 days
Description: The melanogenesis-stimulating effect of silybin was measured on B16F10-line mouse melanoma cells.
(§1) For silybin, the following were determined:
(§2) after culturing for 7 days under standard conditions, in 24-well plates, DMEM medium containing 10% calf serum:
the amount of melanin present in the cultures, by spectrophotometric measurement of the melanin produced, after alkaline extraction, relative to 100% of the control (the control corresponds to the test performed without test compound).

keratinocytes = experiment: Proliferation/protein synthesis of keratinocytes; type: cell-based
[3] = tested on: B16F10-line mouse melanoma cells; experiment: Cytotoxicity (MTT) and amount of proteins (Bradford), B16F10 cultures; type: cell-based; settings: for Proteins / MTT: 7 days; for MTT: control = 100
Excerpt: as §2
the cytotoxicity, by estimating the […] of MTT, the amount of proteins, by assay according to the Bradford method and observation of the cell lawns, […]

normal human melanocytes [4] = experiment: Protein synthesis (3H-leucine incorporation), normal human melanocytes; type: cell-based; settings: for Protein synthesis (3H-leucine), % of control / Protein synthesis (3H-leucine), cpm: 3 days; for Protein synthesis (3H-leucine), cpm: labelling last 24 hours
Description: (§3) after culturing for 3 days under standard conditions:
the effects on the metabolism of normal human melanocytes by incorporation of tritiated leucine into neosynthesized proteins (labelling for the last 24 hours).

normal human melanocytes [5] = experiment: Proliferation (3H-thymidine incorporation), normal human melanocytes; type: cell-based; settings: 3 days; for Proliferation (3H-thymidine), cpm: labelling last 24 hours
Description: as §3
the effects on the proliferation of normal human melanocytes by incorporation of tritiated thymidine into DNA (labelling for the last 24 hours),

[6] = tested on: normal human hair follicles; experiment: Protection against degeneration of cultured human hair follicles; type: cell-based; settings: precultured 7 days, then treated 7 days
Excerpt: The aim of this test is to show the effect of the compounds used according to the invention on degeneration of the follicles in in vitro cultures of human hair follicles.
Method: Normal human hair follicles are isolated by microdissection of human scalp (lifting) and cultured as in Example 4. The bulbs are all precultured (“aged”, without treatment) for 7 days (D7), and then left untreated or treated by the invention for a further 7 days (D14). The follicles are photographed and the morphology is analysed.

[7] = tested on: normal human keratinocytes; experiment: Phagocytosis of fluorescent beads by keratinocytes (flow cytometry); type: cell-based; settings: for % Positive cells (cells which have phagocytozed more than twice the basal phagocytosis), single replicates / Positive cells, % Control / % Positive cells, Mean: 24 hours; for % Positive cells, Mean: triplicate
Description: The aim of this test is to show the effect of the compounds used according to the invention on modulation of the phagocytosis of particles by the keratinocytes.
Method: Normal human keratinocytes are cultured in KSFM medium and treated for 24 hours with the compounds according to the invention, in the presence of calibrated fluorescent beads (Molecular Probes) of the size of melanosomes. The phagocytosis of the particles is visualized by fluorescence microscopy, and the cells are then harvested after trypsination and analysed by flow cytometry, to determine the number of cells that have phagocytozed a threshold number of particles and the intensity of the phagocytozed overall fluorescence (10 000 cells analysed per condition, in triplicate).

normal human melanocytes [8] = experiment: Melanin synthesis by normal human melanocytes (10-day culture); type: cell-based; settings: 10 days
Description: The melanogenesis-stimulating effect of silybin was measured on normal human melanocyte cultures.
as §1
(§4) after culturing for 10 days under standard conditions, in 24-well plates, in Promocell medium free of “phorbol myristate acetate” (PMA):
the amount of melanin present in the cultures, by spectrophotometric measurement of the melanin produced, after alkaline extraction, relative to 100% of the control (the control corresponds to the test performed without test compound);

normal human melanocytes [9] = experiment: Cytotoxicity (MTT reduction) and amount of proteins (Bradford), normal human melanocyte cultures; type: cell-based; settings: for Proteins / MTT: 10 days; for MTT: control = 100
Excerpt: as §4
the cytotoxicity, by estimating the reduction of “methyl thiazolyl tetrazolium” (MTT), the amount of proteins, by assay according to the Bradford method and observation of the cell lawns, […]

[10] = target: T1, receptor MC1-R (melanocortin-1 receptor); settings: of the order of; read-out: Affinity of the ligand for MC1-R; cited from earlier work

T1 sequence (Q01727 whole entry): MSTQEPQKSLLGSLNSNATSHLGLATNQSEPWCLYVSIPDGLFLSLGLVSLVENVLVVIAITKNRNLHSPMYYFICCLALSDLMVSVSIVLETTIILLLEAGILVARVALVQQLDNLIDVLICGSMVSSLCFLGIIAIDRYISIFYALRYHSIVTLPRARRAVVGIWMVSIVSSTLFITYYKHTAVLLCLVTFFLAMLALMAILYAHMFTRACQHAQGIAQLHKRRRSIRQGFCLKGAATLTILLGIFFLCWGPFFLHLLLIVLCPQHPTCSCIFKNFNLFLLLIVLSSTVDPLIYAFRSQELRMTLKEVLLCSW

COc1cc(C2Oc3cc([C@H]4Oc5cc(O)cc(O)c5C(=O)[C@@H]4O)ccc3OC2CO)ccc1O (stereo partly drawn) [Silybin, 2-[(2R,3R)-2,3-dihydro-3-(4-hydroxy-3-methoxyphenyl)-2-(hydroxymethyl)-1,4-benzodioxin-6-yl]-2,3-dihydro-3,5,7-trihydroxy-4H-1-benzopyran-4-one, (2R,3R)-(9CI)]
Displacement of [125I]NDP-alpha-MSH ([1]; at 100 μM (0.005%)): 10%
Displacement of [125I]NDP-alpha-MSH ([1]; at 500 μM): 30%
Melanin ([2]; 0.00004%): 13.0 µg/mL
Melanin, % relative to 100% of the control ([2]; 0.00004%): 100%
Melanin ([2]; 0.0002%): 15.0 µg/mL
Melanin, % relative to 100% of the control ([2]; 0.0002%): 115%
Melanin ([2]; 0.001%): 33.0 µg/mL
Melanin, % relative to 100% of the control ([2]; 0.001%): 250% and 254%
Effect on proliferation/protein synthesis of keratinocytes (keratinocytes): did not otherwise show any effect
Proteins ([3]; 0.00004%): 1.553 mg/mL
MTT ([3]; 0.00004%): 100%
Proteins ([3]; 0.0002%): 1.594 mg/mL
MTT ([3]; 0.0002%): 100%
Proteins ([3]; 0.001%): 1.457 mg/mL
MTT ([3]; 0.001%): 89%
Cell metabolism according to MTT and protein synthesis parameters (in words) ([3]; B16F10): without modification of the cell metabolism
Protein synthesis (3H-leucine), % of control (normal human melanocytes [4]; 0.0002%): 120%
Protein synthesis (3H-leucine), cpm (normal human melanocytes [4]; 0.0002%): 11705 cpm
Protein synthesis (3H-leucine), % of control (normal human melanocytes [4]; 0.001%): 124%
Protein synthesis (3H-leucine), cpm (normal human melanocytes [4]; 0.001%): 12099 cpm
Protein synthesis increase (normal human melanocytes [4]; protein neosynthesis over 72 hours): 20%
Proliferation (3H-thymidine), % of control (normal human melanocytes [5]; 0.0002%): 83%
Proliferation (3H-thymidine), cpm (normal human melanocytes [5]; 0.0002%): 5638 cpm
Proliferation (3H-thymidine), % of control (normal human melanocytes [5]; 0.001%): 53%
Proliferation (3H-thymidine), cpm (normal human melanocytes [5]; 0.001%): 3622 cpm
Pigmentation of the hair root [6]: display pigmentation of all of the hair root
% Positive cells (cells which have phagocytozed more than twice the basal phagocytosis), single replicates ([7]; 0.0002%): 44.29% and 42.92% and 45.88%
Positive cells, % Control ([7]; 0.0002%): 124%
% Positive cells, Mean ([7]; 0.0002%): 44%
% Positive cells (cells which have phagocytozed more than twice the basal phagocytosis), single replicates ([7]; 0.001%): 52.19% and 50.74% and 49.94%
Positive cells, % Control ([7]; 0.001%): 143%
% Positive cells, Mean ([7]; 0.001%): 51%
Phagocytosis of fluorescent particles (in words) ([7]; flow cytometry and fluorescence microscopy): significant and reproducible stimulation of phagocytosis
Melanin (normal human melanocytes [8]; 0.00004% (w/v)): 31.9 µg/mL
Melanin, % relative to 100% of the control (normal human melanocytes [8]; 0.00004% (w/v)): 115%
Melanin (normal human melanocytes [8]; 0.0002% (w/v)): 37.1 µg/mL
Melanin, % relative to 100% of the control (normal human melanocytes [8]; 0.0002% (w/v)): 134%
Melanin (normal human melanocytes [8]; 0.001% (w/v)): 41.5 µg/mL
Melanin, % relative to 100% of the control (normal human melanocytes [8]; 0.001% (w/v)): 150%
Proteins (normal human melanocytes [9]; 0.00004% (w/v)): 0.765 mg/mL
MTT (normal human melanocytes [9]; 0.00004% (w/v)): 113%
Proteins (normal human melanocytes [9]; 0.0002% (w/v)): 0.792 mg/mL
MTT (normal human melanocytes [9]; 0.0002% (w/v)): 126%
Proteins (normal human melanocytes [9]; 0.001% (w/v)): 0.830 mg/mL
MTT (normal human melanocytes [9]; 0.001% (w/v)): 128%
Cytotoxic activity (in words) (normal human melanocytes [9]; normal human melanocytes): without any cytotoxic activity

[^125I]NDP-alpha-MSH
Kd [10]: ~0.1 nM
